Data on 4 compounds can be found in PMC4414788 (Chemico-biological interactions, 2015).

Structures are written as SMILES.

As a reminder, the inhibition is the change of the read-out against control, counted positive when it falls.

Assay [1] has as its target T1, ALDH3A1 (Homo sapiens, UniProt P30838).
T1 sequence (P30838 1-453): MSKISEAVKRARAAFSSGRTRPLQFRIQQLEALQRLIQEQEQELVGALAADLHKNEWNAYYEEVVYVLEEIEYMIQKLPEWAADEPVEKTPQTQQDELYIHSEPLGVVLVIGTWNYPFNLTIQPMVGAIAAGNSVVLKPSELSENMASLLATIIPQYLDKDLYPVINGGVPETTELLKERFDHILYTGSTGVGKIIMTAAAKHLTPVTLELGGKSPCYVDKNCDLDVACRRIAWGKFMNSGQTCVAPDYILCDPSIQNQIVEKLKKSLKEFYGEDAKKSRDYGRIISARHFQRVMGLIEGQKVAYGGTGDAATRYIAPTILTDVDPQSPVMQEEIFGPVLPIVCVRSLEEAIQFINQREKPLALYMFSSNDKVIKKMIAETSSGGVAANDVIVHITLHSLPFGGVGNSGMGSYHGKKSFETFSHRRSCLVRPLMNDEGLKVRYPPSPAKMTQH
The assay is described as follows: biochemical. The note with it: read-out: % of control remaining.

Assay [2] addresses T2, ALDH2 (Homo sapiens, UniProt P05091).
T2 sequence (P05091 18-517): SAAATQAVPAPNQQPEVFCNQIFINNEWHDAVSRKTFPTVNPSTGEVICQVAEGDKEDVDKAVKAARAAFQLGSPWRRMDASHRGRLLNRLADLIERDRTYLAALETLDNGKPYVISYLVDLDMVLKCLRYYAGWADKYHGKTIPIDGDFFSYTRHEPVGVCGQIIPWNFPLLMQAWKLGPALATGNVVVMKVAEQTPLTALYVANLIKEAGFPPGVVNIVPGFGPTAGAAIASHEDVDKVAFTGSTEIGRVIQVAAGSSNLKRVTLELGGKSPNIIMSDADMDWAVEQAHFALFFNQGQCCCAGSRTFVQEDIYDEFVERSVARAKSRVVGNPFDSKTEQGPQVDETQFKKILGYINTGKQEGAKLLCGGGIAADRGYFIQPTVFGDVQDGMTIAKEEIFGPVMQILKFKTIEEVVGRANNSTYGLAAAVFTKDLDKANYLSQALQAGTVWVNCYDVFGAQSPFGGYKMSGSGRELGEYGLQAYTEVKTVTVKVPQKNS
The assay is described as follows: propionaldehyde dehydrogenase assay. In kind it is biochemical. Particulars: read-out: ALDH2.

For assay [3], the target named is T3, ALDH1A1 (Homo sapiens, UniProt P00352, N121S).
T3 sequence (P00352 2-501 N121S): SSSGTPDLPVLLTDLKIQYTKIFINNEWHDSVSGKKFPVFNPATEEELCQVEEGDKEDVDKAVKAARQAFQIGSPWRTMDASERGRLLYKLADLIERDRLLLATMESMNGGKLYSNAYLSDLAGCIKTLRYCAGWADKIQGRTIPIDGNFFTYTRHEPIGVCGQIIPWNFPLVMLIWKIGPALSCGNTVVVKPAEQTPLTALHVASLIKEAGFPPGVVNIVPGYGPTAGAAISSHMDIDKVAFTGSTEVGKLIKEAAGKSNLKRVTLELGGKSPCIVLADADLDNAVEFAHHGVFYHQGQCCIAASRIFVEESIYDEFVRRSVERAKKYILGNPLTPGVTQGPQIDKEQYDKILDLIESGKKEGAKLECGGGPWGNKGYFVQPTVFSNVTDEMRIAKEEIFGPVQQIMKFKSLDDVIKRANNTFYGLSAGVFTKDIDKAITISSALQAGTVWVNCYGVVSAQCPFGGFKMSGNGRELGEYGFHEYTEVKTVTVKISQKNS
Kind of assay: propionaldehyde dehydrogenase assay. The note with it: read-out: ALDH1A1 ^*. The format is biochemical.

For assay [4], the target named is T4, ALDH1A2 (Homo sapiens, UniProt O94788).
T4 sequence (O94788 1-518): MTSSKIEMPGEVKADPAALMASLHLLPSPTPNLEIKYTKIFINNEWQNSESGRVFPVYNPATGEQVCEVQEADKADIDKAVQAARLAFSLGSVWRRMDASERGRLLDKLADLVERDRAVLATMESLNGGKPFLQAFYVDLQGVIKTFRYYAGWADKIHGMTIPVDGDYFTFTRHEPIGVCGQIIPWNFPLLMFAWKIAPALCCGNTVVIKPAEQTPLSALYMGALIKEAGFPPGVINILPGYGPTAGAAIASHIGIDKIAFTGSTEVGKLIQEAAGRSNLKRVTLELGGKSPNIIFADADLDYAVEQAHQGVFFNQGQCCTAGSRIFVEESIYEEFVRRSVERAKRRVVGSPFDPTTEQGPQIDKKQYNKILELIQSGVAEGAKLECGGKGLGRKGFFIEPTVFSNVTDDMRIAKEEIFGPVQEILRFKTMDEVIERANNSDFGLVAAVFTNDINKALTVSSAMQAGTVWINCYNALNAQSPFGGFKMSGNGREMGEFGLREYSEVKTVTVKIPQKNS
Kind of assay: propionaldehyde dehydrogenase assay. In kind it is biochemical. The note with it: read-out: % inhibition at 10 μM.

In assay [5] the target is T5, ALDH1A3 (Homo sapiens, UniProt P47895).
T5 sequence (P47895 2-512): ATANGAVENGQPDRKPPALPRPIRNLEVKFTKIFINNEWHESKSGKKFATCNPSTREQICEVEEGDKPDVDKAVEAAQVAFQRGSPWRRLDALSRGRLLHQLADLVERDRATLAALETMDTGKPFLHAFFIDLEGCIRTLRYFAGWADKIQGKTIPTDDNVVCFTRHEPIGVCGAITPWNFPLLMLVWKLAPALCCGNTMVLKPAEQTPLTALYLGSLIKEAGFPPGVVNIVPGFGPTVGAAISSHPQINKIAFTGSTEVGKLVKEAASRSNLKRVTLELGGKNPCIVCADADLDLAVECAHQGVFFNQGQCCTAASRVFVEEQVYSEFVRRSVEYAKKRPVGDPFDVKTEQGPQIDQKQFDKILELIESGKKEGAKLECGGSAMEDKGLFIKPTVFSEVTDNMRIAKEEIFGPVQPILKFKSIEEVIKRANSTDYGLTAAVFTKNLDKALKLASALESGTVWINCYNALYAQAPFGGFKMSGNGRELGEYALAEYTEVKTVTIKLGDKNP
The assay is described as follows: propionaldehyde dehydrogenase assay. The note with it: read-out: % inhibition at 10 μM. In kind it is biochemical.

For assay [6], the target named is T6, ALDH1B1 (Homo sapiens, UniProt P30837).
T6 sequence (P30837 18-517): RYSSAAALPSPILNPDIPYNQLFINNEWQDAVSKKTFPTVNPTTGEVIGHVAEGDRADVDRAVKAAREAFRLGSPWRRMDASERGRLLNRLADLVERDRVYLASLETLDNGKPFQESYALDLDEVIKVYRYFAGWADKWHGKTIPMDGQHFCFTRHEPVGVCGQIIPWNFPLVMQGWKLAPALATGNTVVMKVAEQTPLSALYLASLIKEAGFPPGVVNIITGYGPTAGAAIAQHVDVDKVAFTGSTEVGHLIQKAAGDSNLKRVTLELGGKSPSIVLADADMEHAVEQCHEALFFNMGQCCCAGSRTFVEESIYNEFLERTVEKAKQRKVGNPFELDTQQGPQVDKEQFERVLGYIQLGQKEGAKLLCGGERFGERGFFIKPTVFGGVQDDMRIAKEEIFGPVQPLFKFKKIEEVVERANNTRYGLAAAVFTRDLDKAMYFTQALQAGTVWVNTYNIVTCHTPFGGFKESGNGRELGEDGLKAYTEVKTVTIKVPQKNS
Kind of assay: propionaldehyde dehydrogenase assay. In kind it is biochemical. The note with it: read-out: % inhibition at 10 μM.

Assay [7] addresses T3, ALDH1A1. The assay is described as follows: biochemical. Particulars: read-out: % of control remaining.

Take `CCCc1c(C)c2cc3c(C)coc3cc2oc1=O` [2CB5, 3,5-dimethyl-6-propylfuro[3,2-g]chromen-7-one]: the remaining activity at 10 µM in assay [1] amounted to 87.6%. The results for the activity at 10 µM in assay [2] and in assay [3] were 7.6% and 58.6%, respectively.

As for `COC(=O)C(C)Oc1ccc2c(C)cc(=O)oc2c1` (centres unmarked) [2BS4, methyl-2-[(4-methyl-2-oxo-2H-chromen-7-yl)oxy]propanoate], in assay [2], the activity at 10 µM is 10.3%.

For the compound `CCCc1c(C)c2cc3c(C)c(C)oc3cc2oc1=O` [2P3, 2,3,5-trimethyl-6-propyl-7H-furo[3,2-g]chromen-7-one], the inhibition at 10 µM in assay [4], in assay [5] and in assay [6] was over 60% each time. For the same compound, the activity at 10 µM amounted to 1.5% in assay [2] and 40.8% in assay [3].

`Cc1oc2cc3oc(=O)c(C)c(C)c3cc2c1C` [2P4, 2,3,5,6-tetramethylfuro[3,2-g]chromen-7-one]: the remaining activity at 10 µM is 87.8% in assay [1] and 89.3% in assay [7].
